Laboratory results taken from US5053216A, “Radioactive Jomol, its derivatives, processes for the production of these compounds, their use and product” (priority 1985, dated 1991).

Key:
[1] = format: physicochemical; conditions: acid environment / stomach
[2] = human body; cited from earlier work

Row | Compound | removal of bound radium [1] | rate of metabolism versus ethanol [2]
1 | O=Cc1ccc2c(c1)OCC(=O)N1CCOCCOCCN(CCOCCOCC1)C(=O)CO2 [CE] | instable in the stomach, stable in the rest of the body | 
2 | CO [Methanol] |  | substantially more slowly
